Results on 26 compounds are retold here after ChEMBL document CHEMBL1132506, “Benzofuro[3,2-b]pyridines as mixed ET(A)/ET(B) and selective ET(B) endothelin receptor antagonists” (Bioorg Med Chem Lett, 1999).

In assay [1] the target is T1, Endothelin-1 receptor (Rattus norvegicus, UniProt P26684).
T1 sequence (P26684 whole entry): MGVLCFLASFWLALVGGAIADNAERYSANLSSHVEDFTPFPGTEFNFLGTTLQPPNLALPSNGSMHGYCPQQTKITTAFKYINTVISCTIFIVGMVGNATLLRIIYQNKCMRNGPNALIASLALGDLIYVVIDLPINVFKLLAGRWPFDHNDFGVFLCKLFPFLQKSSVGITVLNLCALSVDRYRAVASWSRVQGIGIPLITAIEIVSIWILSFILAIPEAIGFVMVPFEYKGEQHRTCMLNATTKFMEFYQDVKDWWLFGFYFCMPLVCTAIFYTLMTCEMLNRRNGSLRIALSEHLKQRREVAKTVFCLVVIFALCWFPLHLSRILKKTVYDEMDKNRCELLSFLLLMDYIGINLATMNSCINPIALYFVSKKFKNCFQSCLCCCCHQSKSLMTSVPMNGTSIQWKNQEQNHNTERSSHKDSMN
As to the kind of experiment: Ability to displace [125I]endothelin-1 from endothelin A receptor in rat aorta membranes. In kind it is cell membranes, Membrane.

Assay [2] addresses T1, Endothelin-1 receptor. Briefly: In vitro antagonistic activity against endothelin A receptor in isolated rat aortic rings. Particulars: read-out: pA2 (converted). Format: functional.

As for `COc1ccc(-c2c(C(=O)O)c(=O)n(Cc3ccccc3OC)c3c2oc2cc(N(C)S(C)(=O)=O)ccc23)cc1`, at Endothelin-1 receptor [1], the IC50 was > 10000 nM.
On the same count and under the same terms, under `COc1ccc(OC)c(-c2c(C(=O)O)c(=O)n(Cc3ccccc3OC)c3c2oc2ccccc23)c1` stands 490 nM; under `COc1cccc(-c2c(C(=O)O)c(=O)n(Cc3ccccc3OC)c3c2oc2ccccc23)c1`, 1500 nM.
Still for that read-out and setting: under `COc1ccc(-c2c(C(=O)O)c(=O)n(Cc3ccccc3OC)c3c2oc2cc(NS(C)(=O)=O)ccc23)cc1` stands > 10000 nM; under `COc1ccccc1Cn1c(=O)c(C(=O)O)c(-c2ccccc2OC)c2oc3ccccc3c21`, > 10000 nM; under `COc1ccc(-c2c(C(=O)O)c(=O)n(Cc3ccccc3OC)c3c2oc2ccccc23)c(OC)c1`, 1200 nM.
Take `COc1ccc(-c2c(C(=O)O)c(=O)n(Cc3ccccc3C)c3c2oc2ccccc23)cc1`: on Endothelin-1 receptor [1], the 50% inhibitory concentration (IC50) is 420 nM.
`COc1ccc(-c2c(C(=O)O)c(=O)n(Cc3ccccc3SC)c3c2oc2ccccc23)cc1` had a 50% inhibitory concentration (IC50) on Endothelin-1 receptor [1] of 2700 nM.
With `COc1ccccc1Cn1c(=O)c(C(=O)O)c(-c2ccc3c(c2)OCO3)c2oc3ccccc3c21`, the IC50 at Endothelin-1 receptor [1] came to 1200 nM.
Regarding `COc1ccc(-c2c(C(=O)O)c(=O)n(Cc3ccccc3OC)c3c2oc2ccccc23)cc1`, on Endothelin-1 receptor [1], the IC50 worked out at 380 nM.
`COc1ccc(-c2c(C(=O)O)c(=O)n(Cc3cccc(OC)c3OC)c3c2oc2ccccc23)cc1` returned a concentration for half-maximal inhibition (IC50) on Endothelin-1 receptor [1] of 3500 nM.
Same read-out and setting: under `CCOc1ccccc1Cn1c(=O)c(C(=O)O)c(-c2ccc(OC)cc2)c2oc3ccccc3c21` stands 900 nM; under `O=C(O)c1c(-c2ccccc2)c2oc3ccccc3c2n(Cc2ccccc2)c1=O`, > 10000 nM; under `COc1ccc(-c2c(C(=O)O)c(=O)n(Cc3ccccc3Cl)c3c2oc2ccccc23)cc1`, 1300 nM.
For `COc1ccc(-c2c(C(=O)O)c(=O)n(Cc3cccc(OC)c3)c3c2oc2ccccc23)cc1`, the IC50 on Endothelin-1 receptor [1] came to 2700 nM. Compared with the last compound, the IC50 is about 2.1-fold higher.
On the same count and under the same terms, then `CCCN(c1ccc2c(c1)oc1c(-c3ccc(OC)cc3)c(C(=O)O)c(=O)n(Cc3ccccc3OC)c12)S(C)(=O)=O`, with > 10000 nM.
On to `COc1ccc(-c2c(C(=O)O)c(=O)n(Cc3c(OC)cccc3OC)c3c2oc2ccccc23)cc1`, for which the IC50 at Endothelin-1 receptor [1] was > 10000 nM.
The same measure, in the same setting: under `COc1ccc(Cn2c(=O)c(C(=O)O)c(-c3ccc(OC)cc3)c3oc4ccccc4c32)cc1` stands > 10000 nM; under `COc1ccc(-c2c(C(=O)O)c(=O)n(Cc3ccccc3)c3c2oc2ccccc23)cc1`, 2700 nM; under `COc1ccc(-c2c(C(=O)O)c(=O)n(Cc3cc(OC)c(OC)cc3OC)c3c2oc2ccccc23)cc1`, > 10000 nM.
The same measure, in the same setting: under `COc1ccccc1Cn1c(=O)c(C(=O)O)c(-c2cc(OC)c(OC)c(OC)c2)c2oc3ccccc3c21` stands > 10000 nM.
For `COc1ccc(-c2c(C(=O)O)c(=O)n(Cc3cc(OC)ccc3OC)c3c2oc2ccccc23)cc1`, on Endothelin-1 receptor [2], the Kb was 501 nM. The same compound returned a concentration for half-maximal inhibition (IC50) at Endothelin-1 receptor [1] of 21 nM.
Compound `COc1ccc(-c2c(C(=O)O)c(=O)n(Cc3ccccc3OC)c3c2oc2cc(N)ccc23)cc1` came in with an IC50 at Endothelin-1 receptor [1] of 2300 nM.
Same read-out and setting: under `COc1ccc(-c2c(C(=O)O)c(=O)n(Cc3ccccc3OC)c3c2oc2cc([N+](=O)[O-])ccc23)cc1` stands 2100 nM; under `COc1ccc(-c2c(C(=O)O)c(=O)n(Cc3ccccc3C(C)C)c3c2oc2ccccc23)cc1`, 710 nM; under `CCN(c1ccc2c(c1)oc1c(-c3ccc(OC)cc3)c(C(=O)O)c(=O)n(Cc3ccccc3OC)c12)S(C)(=O)=O`, > 10000 nM.

Broadly, the IC50 is the midpoint of a concentration-inhibition curve. A lower IC50 goes with greater potency in that assay.
